Measured values as given in PubChem BioAssay (NCI).
“And” between values parts separate entries of the source, which are not always exact repeats. Equal entries are not always repeated.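 A five-concentration, 48-hour dose response in 96-well plates underlies each endpoint, interpolated linearly between surrounding concentrations. At the GI50, growth is halved. TGI marks complete inhibition of growth.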

Experiments:
Assay in all cases: growth of human tumour cells (NCI), 48 h
LOX IMVI melanoma = test system: LOX IMVI melanoma
NCI-H226 lung = test system: NCI-H226 lung
HL-60(TB) leukemia = test system: HL-60(TB) leukemia
SK-MEL-28 melanoma = test system: SK-MEL-28 melanoma
NCI-H522 lung = test system: NCI-H522 lung
NCI-H23 lung = test system: NCI-H23 lung
SF-539 CNS = test system: SF-539 CNS
SF-268 CNS = test system: SF-268 CNS
UACC-257 melanoma = test system: UACC-257 melanoma
HCC-2998 colon = test system: HCC-2998 colon

Row | SMILES | GI50 (LOX IMVI melanoma) [nM] | TGI (LOX IMVI melanoma) [µM] | GI50 (NCI-H226 lung) [µM] | TGI (NCI-H226 lung) [µM] | GI50 (HL-60(TB) leukemia) [nM] | TGI (HL-60(TB) leukemia) | GI50 (SK-MEL-28 melanoma) [nM] | TGI (SK-MEL-28 melanoma) | GI50 (NCI-H522 lung) [nM] | TGI (NCI-H522 lung) [µM] | GI50 (NCI-H23 lung) [µM] | TGI (NCI-H23 lung) | GI50 (SF-539 CNS) [nM] | TGI (SF-539 CNS) | GI50 (SF-268 CNS) [µM] | TGI (SF-268 CNS) | GI50 (UACC-257 melanoma) [nM] | TGI (UACC-257 melanoma) | GI50 (HCC-2998 colon) | TGI (HCC-2998 colon)
1 | CN1CCN(c2ccc3nc(-c4ccc5nc(-c6ccc(C(F)(F)F)cc6)[nH]c5c4)[nH]c3c2)CC1 | 1820 | 3.36 | 9.59 | 29.9 | 1470 | 3.45 µM | 1770 | 3.34 µM | 1470 | 3.39 | 1.71 | 3.5 µM | 1620 | 3.09 µM | 1.97 | 3.93 µM | 1750 | 3.42 µM | 1980 nM | 3.57 µM
2 | NCC(=O)OCN1C(=O)C2C3C=CC(C2C1=O)C1C2C(=O)N(COC(=O)CN)C(=O)C2C31 (centres undefined) | – | 37.9 | – | > 100 | – | 28.5 µM and 37.4 µM | – | 35.3 µM and 40.8 µM | – | 25.9 | – | 49.1 µM and 84.7 µM | – | 68.9 µM and 38.2 µM | – | 41.1 µM and 48.6 µM | – | > 100 µM and 77.6 µM | 31200 nM and 69900 nM | 94.8 µM and > 100 µM
3 | COc1ccccc1NC(=O)N/C(N)=N/c1nc2ccccc2s1 | 145 | > 100 | 0.949 | > 100 | 82.7 | 0.436 µM | 30700 | > 100 µM | 25 | – | 0.15 | > 100 µM | 71.8 | 0.411 µM | – | > 100 µM | – | > 100 µM | 375 nM | > 100 µM
4 | COc1cc([N+](=O)[O-])c(S(=O)(=O)O)cc1-n1nc(-c2ccccc2)n[n+]1-c1cc(S(=O)(=O)[O-])c([N+](=O)[O-])cc1OC | – | > 100 | – | > 100 | – | > 100 µM | – | > 100 µM | – | > 100 | – | > 100 µM | – | > 100 µM | – | > 100 µM | – | > 100 µM | – | > 100 µM
5 | COc1cc(C(C)c2cc3c(cc2OCCOCCOc2cc4c(cc2C(C)c2cc(OC)c(OC)c(OC)c2)OCO4)OCO3)cc(OC)c1OC (centres undefined) | > 100000 | > 100 | – | > 10 | > 100000 | > 100 µM | > 100000 | > 100 µM | > 100000 | > 100 | > 100 | > 100 µM | > 100000 | > 100 µM | > 100 | > 100 µM | – | > 10 µM | > 100000 nM | > 100 µM
6 | N#C/C(=C/c1cccs1)c1cccs1 | > 100000 | > 100 | > 100 | > 100 | > 100000 | > 100 µM | > 100000 | > 100 µM | > 100000 | > 100 | > 100 | > 100 µM | > 100000 | > 100 µM | > 100 | > 100 µM | > 100000 | > 100 µM | > 100000 nM | > 100 µM
7 | CCCN(CCC)c1ccc(C=O)c(OC)c1 | 25800 | > 100 | 28.5 | > 100 | 12400 | 38 µM | 21300 | 83.9 µM | 18100 | 67.3 | 22.2 | > 100 µM | 26000 | > 100 µM | 22 | > 100 µM | 18500 | 61.2 µM | 24900 nM | > 100 µM
8 | CN([N-]C(=O)CC(=O)[N-]N(C)C(=S)c1ccccc1)C(=S)c1ccccc1.[Cu+2] | < 12.9 | 0.0683 | 0.183 | 0.467 | 66.3 | – | 35 | 0.127 µM | < 13 | 0.0281 | 0.0241 | 0.141 µM | 142 | 0.275 µM | 0.037 | 0.176 µM | < 10 | 0.063 µM | 59.8 nM | 0.176 µM
9 | C=CCCC12CCCC(=O)C1Sc1ccc3ccccc3c12 (centres undefined) | – | 26.5 | – | 36.2 | – | 44.6 µM | – | > 100 µM | – | 35 | – | 55.7 µM | – | 28.5 µM | – | > 100 µM | – | 55.7 µM | – | 34.2 µM
10 | Cc1cc(C)c(S(=O)(=O)Oc2ccccc2[N+](=O)[O-])c(C)c1 | 3330 | > 100 | 10.6 | > 100 | 367 | 2.5 µM | 5460 | > 100 µM | 1260 | 6.56 | 4.69 | > 100 µM | 2160 | > 23.1 µM | 4.57 | > 100 µM | 4220 | > 100 µM | 2950 nM | > 100 µM
11 | CCc1nc2cc(/C=C/C(=O)NO)c(F)cc2c(=O)n1CCc1ccccc1 | 488 | 1.97 | 1.25 | 5.98 | 3710 | > 100 µM | 1370 | 6.97 µM | 502 | 3.98 | 1.17 | 4.32 µM | 874 | 5.8 µM | 0.829 | 5.27 µM | 2120 | 7.41 µM | 1570 nM | 11.3 µM
12 | CCCCCCCCCCSS(=O)(=O)c1ccc(C)cc1 | – | 15.7 | – | 37.3 | – | 11.6 µM | – | 10.2 µM | – | 17.2 | – | 35.4 µM | – | 3.67 µM | – | 19 µM | – | 19.8 µM | – | 39.3 µM
13 | CC(=O)[CH-]C(=O)c1ccccc1.CC(=O)[CH-]C(=O)c1ccccc1.CC(C)CCCC(C)[C@H]1CCC2[C@@H]3CCC4C[C@@H]([O-])CC[C@]4(C)C3CC[C@@]21C.CC(C)CCCC(C)[C@H]1CCC2[C@@H]3CCC4C[C@@H]([O-])CC[C@]4(C)C3CC[C@@]21C.Cl.[Ti+4] (some centres undefined) | > 25000 | > 25 | > 25 | > 25 | 8290 | 24.9 µM | > 25000 | > 25 µM | > 25000 | > 25 | > 25 | > 25 µM | > 25000 | > 25 µM | > 25 | > 25 µM | > 25000 | > 25 µM | > 25000 nM | > 25 µM
14 | COc1ncnc2c1ncn2C/C(Br)=C(\Br)CCl | 2790 | 9.61 | 2.82 | 9.38 | 2030 | 6.32 µM | 2620 | 8.62 µM | 875 | 2.25 | 3.16 | 11.4 µM | 2170 | 7.61 µM | 1.96 | 5.59 µM | 775 | 3.9 µM | 17200 nM | 31.2 µM
15 | COC(=O)/C=C\C1C(C(=O)OC)C2(C(=O)OC)CCC1(C(=O)OC)N2 (centres undefined) | – | 29 | – | 36.6 | – | 6.47 µM | – | 26.4 µM | – | 1.76 | – | 36.4 µM | – | 32 µM | – | 44.5 µM | – | 19.2 µM | – | 31.2 µM
16 | COc1cc(C)c(N(C)C(=O)CN(C)C)cc1Nc1nc(Nc2cccc(F)c2C(N)=O)c2cc[nH]c2n1 | 24600 | > 25 | > 24 | > 25 | 3200 | > 25 µM | > 25000 | > 25 µM | > 25000 | > 25 | > 25 | > 25 µM | > 25000 | > 25 µM | > 25 | > 25 µM | > 15100 | > 25 µM | > 23100 nM | > 25 µM
17 | Cc1ccc(S(=O)(=O)NC(C)C(=O)O)cc1 (centres undefined) | – | > 100 | – | > 100 | – | > 100 µM | – | > 100 µM | – | > 100 | – | > 100 µM | – | > 100 µM | – | > 100 µM | – | > 100 µM | – | > 100 µM
18 | COc1ccc(S(=O)(=O)N2CCCCC2)cc1NC(=O)c1[nH]c(C)c2c1CCCCC2=O | 887 | 2.79 | 1.27 | 34.7 | 444 | 6.86 µM | 2720 | > 100 µM | 374 | 7.73 | 3.11 | > 100 µM | 2310 | > 100 µM | 7.91 | > 100 µM | 853 | 24.7 µM | 1730 nM | 11.1 µM
19 | CC(C)NCCCNC1=C(Cl)C(=O)c2ccccc2C1=O | 1870 | 3.96 | 12.8 | 27.6 | 2200 | 5.03 µM | 2160 | 3.92 µM | 8690 | 21.8 | 1.88 | 4.56 µM | 16500 | 31.8 µM | 4.42 | 15.1 µM | 1910 | 3.63 µM | 2140 nM | 4.49 µM
20 | Cc1ccc2nc(NC(=O)CSC(=S)N3CCN(Cc4ccccc4)CC3)sc2c1 | – | > 21 | > 100 | > 100 | > 83600 | > 100 µM | > 100000 | > 100 µM | > 100000 | > 100 | > 100 | > 100 µM | > 100000 | > 100 µM | > 100 | > 100 µM | > 100000 | > 100 µM | > 100000 nM | > 100 µM
21 | O=C(O/N=C1/CCC/C1=C\c1ccccc1)c1ccc(Cl)cc1 | – | > 100 | – | > 100 | – | > 100 µM | – | > 100 µM | – | > 100 | – | > 95.3 µM | – | > 62.2 µM | – | > 100 µM | – | > 100 µM | – | > 100 µM
